Test results from patent US20250313579A1, “LIGAND COMPOUNDS COMPRISING A CHELATING GROUP AS A BRIDGING GROUP” (Technische Universität München, priority 2021, published 2025).

Experiment: Octanol-water distribution coefficient (LogDpH=7.4)
Assay type: physicochemical
Conditions: n-octanol/PBS pH 7.4; radioactive ligand
Method: This distribution coefficient may be determined by measuring the equilibrium distribution, e.g. at room temperature (20° C.o) of a compound in accordance with the invention in a two-phase system containing equal amounts, such as 1.00 ml each, of n-octanol and PBS (pH=7.4), and calculating the logD7.4 value as log 10 (concentration in octanol/concentration in PBS). Instead of the (absolute) concentration of the compound in accordance with the invention in the octanol and the PBS, a parameter which is proportional to the concentration of the compound in each phase may also be used for the calculation, such as the activity of radiation if the compound comprises a radioactive moiety, e.g. a radioactive chelate.
The radioactive ligand of interest (0.7-1.0 MBq) is given to a mixture of n-octanol and PBS (1 ml, 1/1; v/V) in a 1.5 ml reaction tube and shaken vigorously for 3 min. The resulting mixture is centrifuged (9000 rpm, 5 min, RT), and 100 μl of the octanol and PBS phases isolated separately.
Quantification occurs by the determination of the activity of each isolated probe in a γ-counter. The LogDpH=7.4 value is determined by the following equation:
The determination of the final LogDpH=7.4 value is executed in octets. The mean value and standard deviation are determined after the removal of outlying values.

Row | SMILES | LogDpH=7.4
1 | C[C@@H](O)[C@H](NC(=O)[C@@H]1CSSC[C@H](NC(=O)[C@@H](Cc2ccccc2)NC(=O)CN2CCN(CC(=O)O)CCN(CC(=O)NCCCC[C@@H](NC(=O)[C@@H](CNC(=O)C[N+](C)(C)Cc3ccc([Si](F)(C(C)(C)C)C(C)(C)C)cc3)NC(=O)[C@@H](CCCNC(N)=O)NC(=O)[C@@H](CCCNC(N)=O)NC(=O)[C@H](N)CCC(=O)O)C(=O)O)CCN(CC(=O)O)CC2)C(=O)N[C@@H](Cc2ccc(O)cc2)C(=O)N[C@H](Cc2c[nH]c3ccccc23)C(=O)N[C@@H](CCCCN)C(=O)N[C@@H]([C@@H](C)O)C(=O)N1)C(=O)O [[Ga]04, H-D-Glu-D -Cit-D -Cit-D-Dap(N-SiFAlin-N,N-Mez-Gly)-D-Lys(trans-[^natGa] DOTA-TATE)-OH, metal not drawn] | −2.30 ± 0.03
2 | C[C@@H](O)[C@H](NC(=O)[C@@H]1CSSC[C@H](NC(=O)[C@@H](Cc2ccccc2)NC(=O)CN2CCN(CC(=O)O)CCN(CC(=O)NCCCC[C@@H](NC(=O)C[N+](C)(C)Cc3ccc([Si](F)(C(C)(C)C)C(C)(C)C)cc3)C(=O)O)CCN(CC(=O)O)CC2)C(=O)N[C@@H](Cc2ccc(O)cc2)C(=O)N[C@H](Cc2c[nH]c3ccccc23)C(=O)N[C@@H](CCCCN)C(=O)N[C@@H]([C@@H](C)O)C(=O)N1)C(=O)O [[Ga]01, N-SiFAlin-N,N-Me2-Gly-D-Lys(trans-[^natGa] DOTA-TATE)-OH, metal not drawn] | −1.19 ± 0.07
3 | C[C@@H](O)[C@H](NC(=O)[C@@H]1CSSC[C@H](NC(=O)[C@@H](Cc2ccccc2)NC(=O)CN2CCN3CCN(CC(=O)NCCCC[C@@H](NC(=O)[C@@H](CNC(=O)C[N+](C)(C)Cc4ccc([Si](F)(C(C)(C)C)C(C)(C)C)cc4)NC(=O)[C@@H](CN)NC(=O)[C@@H](CCC(=O)O)NC(=O)[C@H](N)CCC(=O)O)C(=O)O)CCN(CC2)CC(=O)[O][Ga+][O]C(=O)C3)C(=O)N[C@@H](Cc2ccc(O)cc2)C(=O)N[C@H](Cc2c[nH]c3ccccc23)C(=O)N[C@@H](CCCCN)C(=O)N[C@@H]([C@@H](C)O)C(=O)N1)C(=O)O [[Ga]05, H-D-Glu-D-Glu-D-Dap-D-Dap(N-SiFAlin-N,N-Me2-Gly)-D-Lys(trans-[^natGa] DOTA-TATE)-OH] | −2.12 ± 0.06
4 | C[C@@H](O)[C@H](NC(=O)[C@@H]1CSSC[C@H](NC(=O)[C@@H](Cc2ccccc2)NC(=O)CN2CCN(CC(=O)O)CCN(CC(=O)NCCCC[C@@H](NC(=O)[C@@H](CNC(=O)C[N+](C)(C)Cc3ccc([Si](F)(C(C)(C)C)C(C)(C)C)cc3)NC(=O)[C@@H](CCCCN)NC(=O)[C@@H](CCC(=O)O)NC(=O)[C@H](N)CCC(=O)O)C(=O)O)CCN(CC(=O)O)CC2)C(=O)N[C@@H](Cc2ccc(O)cc2)C(=O)N[C@H](Cc2c[nH]c3ccccc23)C(=O)N[C@@H](CCCCN)C(=O)N[C@@H]([C@@H](C)O)C(=O)N1)C(=O)O [Compound 06, H-D-Glu-D-Glu-D-Lys-D-Dap(N-SiFAlin-N,N-Mez-Gly)-D-Lys(trans-DOTA-TATE)-OH] | −2.36 ± 0.03
5 | C[C@@H](O)[C@H](NC(=O)[C@@H]1CSSC[C@H](NC(=O)[C@@H](Cc2ccccc2)NC(=O)CN2CCN3CCN(CC(=O)NCCCC[C@@H](NC(=O)[C@@H](CNC(=O)C[N+](C)(C)Cc4ccc([Si](F)(C(C)(C)C)C(C)(C)C)cc4)NC(=O)[C@@H](CCCCN)NC(=O)[C@@H](CCC(=O)O)NC(=O)[C@H](N)CCC(=O)O)C(=O)O)CCN(CC2)CC(=O)[O][Ga+][O]C(=O)C3)C(=O)N[C@@H](Cc2ccc(O)cc2)C(=O)N[C@H](Cc2c[nH]c3ccccc23)C(=O)N[C@@H](CCCCN)C(=O)N[C@@H]([C@@H](C)O)C(=O)N1)C(=O)O [[Ga]06, H-D-Glu-D-Glu-D-Lys-D-Dap(N-SiFAlin-N, N-Me2-Gly)-D-Lys(trans-[^natGa] DOTA-TATE)-OH] | −2.28 ± 0.04
6 | C[C@@H](O)[C@H](NC(=O)[C@@H]1CSSC[C@H](NC(=O)[C@@H](Cc2ccccc2)NC(=O)CN2CCN3CCN(CC(=O)NC[C@@H](NC(=O)C[N+](C)(C)Cc4ccc([Si](F)(C(C)(C)C)C(C)(C)C)cc4)C(=O)O)CCN(CC2)CC(=O)[O][Ga+][O]C(=O)C3)C(=O)N[C@@H](Cc2ccc(O)cc2)C(=O)N[C@H](Cc2c[nH]c3ccccc23)C(=O)N[C@@H](CCCCN)C(=O)N[C@@H]([C@@H](C)O)C(=O)N1)C(=O)O [[Ga]02, N-SiFAlin-N, N-Me2-Gly-D-Dap(trans-[^natGa] DOTA-TATE)-OH] | −1.03 ± 0.04
7 | C[C@@H](O)[C@H](NC(=O)[C@@H]1CSSC[C@H](NC(=O)[C@@H](Cc2ccccc2)NC(=O)CN2CCN(CC(=O)O)CCN(CC(=O)NCCCC[C@@H](NC(=O)[C@@H](CNC(=O)C[N+](C)(C)Cc3ccc([Si](F)(C(C)(C)C)C(C)(C)C)cc3)NC(=O)[C@@H](CN)NC(=O)[C@@H](CCC(=O)O)NC(=O)[C@H](N)CCC(=O)O)C(=O)O)CCN(CC(=O)O)CC2)C(=O)N[C@@H](Cc2ccc(O)cc2)C(=O)N[C@H](Cc2c[nH]c3ccccc23)C(=O)N[C@@H](CCCCN)C(=O)N[C@@H]([C@@H](C)O)C(=O)N1)C(=O)O [Compound 05, H-D-Glu-D-Glu-D-Dap-D-Dap(N-SiFAlin-N,N-Mez-Gly)-D-Lys(trans-DOTA-TATE)-OH] | −1.96 ± 0.06
8 | C[C@@H](O)[C@H](NC(=O)[C@@H]1CSSC[C@H](NC(=O)[C@@H](Cc2ccccc2)NC(=O)CN2CCN(CC(=O)O)CCN(CC(=O)NCCCC[C@@H](NC(=O)[C@@H](CNC(=O)C[N+](C)(C)Cc3ccc([Si](F)(C(C)(C)C)C(C)(C)C)cc3)NC(=O)[C@@H](CCCNC(N)=O)NC(=O)[C@@H](CCCNC(N)=O)NC(=O)[C@H](N)CCCNC(N)=O)C(=O)O)CCN(CC(=O)O)CC2)C(=O)N[C@@H](Cc2ccc(O)cc2)C(=O)N[C@H](Cc2c[nH]c3ccccc23)C(=O)N[C@@H](CCCCN)C(=O)N[C@@H]([C@@H](C)O)C(=O)N1)C(=O)O [[Ga]03, H-D -Cit-D -Cit-D -Cit-D-Dap(N-SiFAlin-N,N-Me2-Gly)-D-Lys(trans-[na′Ga] DOTA-TATE)-OH] | −2.27 ± 0.04
9 | C[C@@H](O)[C@H](NC(=O)[C@@H]1CSSC[C@H](NC(=O)[C@@H](Cc2ccccc2)NC(=O)CN2CCN3CCN(CC(=O)NCCCC[C@@H](NC(=O)[C@@H](CNC(=O)C[N+](C)(C)Cc4ccc([Si](F)(C(C)(C)C)C(C)(C)C)cc4)NC(=O)[C@@H](CCC(=O)O)NC(=O)[C@@H](CCC(=O)O)NC(=O)[C@H](N)CCC(=O)O)C(=O)O)CCN(CC2)CC(=O)[O][Ga+][O]C(=O)C3)C(=O)N[C@@H](Cc2ccc(O)cc2)C(=O)N[C@H](Cc2c[nH]c3ccccc23)C(=O)N[C@@H](CCCCN)C(=O)N[C@@H]([C@@H](C)O)C(=O)N1)C(=O)O [[Ga]07, H-D-Glu-D-Glu-D-Glu-D-Dap(N-SiFAlin-N,N-Me2-Gly)-D-Lys(trans-[^natGa] DOTA-TATE)-OH] | −2.30 ± 0.04
10 | C[C@@H](O)[C@H](NC(=O)[C@@H]1CSSC[C@H](NC(=O)[C@@H](Cc2ccccc2)NC(=O)CN2CCN(CC(=O)O)CCN(CC(=O)NCCCC[C@@H](NC(=O)[C@@H](CNC(=O)C[N+](C)(C)Cc3ccc([Si](F)(C(C)(C)C)C(C)(C)C)cc3)NC(=O)[C@@H](CCC(=O)O)NC(=O)[C@@H](CCC(=O)O)NC(=O)[C@@H](CCC(=O)O)NC(=O)[C@]3(O)C[C@@H](O)[C@@H](O)[C@H](O)C3)C(=O)O)CCN(CC(=O)O)CC2)C(=O)N[C@@H](Cc2ccc(O)cc2)C(=O)N[C@H](Cc2c[nH]c3ccccc23)C(=O)N[C@@H](CCCCN)C(=O)N[C@@H]([C@@H](C)O)C(=O)N1)C(=O)O [[Ga]09, D-(−)-quinic acid-D-Glu-D-Glu-D-Glu-D-Dap(N-SiFAlin-N,N-Me2-Gly)-D-Lys(trans-[^natGa] DOTA-TATE)-OH, metal not drawn] | −2.28 ± 0.04
11 | C[C@@H](O)[C@H](NC(=O)[C@@H]1CSSC[C@H](NC(=O)[C@@H](Cc2ccccc2)NC(=O)CN2CCN3CCN(CC(=O)NCCCC[C@@H](NC(=O)[C@@H](CCC(=O)O)NC(=O)[C@@H](CNC(=O)C[N+](C)(C)Cc4ccc([Si](F)(C(C)(C)C)C(C)(C)C)cc4)NC(=O)[C@@H](CCC(=O)O)NC(=O)[C@@H](CCC(=O)O)NC(=O)[C@H](N)CCC(=O)O)C(=O)O)CCN(CC2)CC(=O)[O][Ga+][O]C(=O)C3)C(=O)N[C@@H](Cc2ccc(O)cc2)C(=O)N[C@H](Cc2c[nH]c3ccccc23)C(=O)N[C@@H](CCCCN)C(=O)N[C@@H]([C@@H](C)O)C(=O)N1)C(=O)O [[Ga]08, H-D-Glu-D-Glu-D-Glu-D-Dap(N-SiFAlin-N,N-Me2-Gly)-D-Glu-D-Lys(trans-[^natGa] DOTA-TATE)-OH] | −2.07 ± 0.04
